The values that follow come from patent US7045528B2, “Benzofused heterozryl amide derivatives of thienopyridines useful as therapeutic agents, pharmaceutical compositions including the same, and methods for their use” (Agouron Pharmaceuticals, Inc., priority 2002, dated 2006).

Assay [1] addresses T1, unphosphorylated VEGF-R2Δ50 (FLVK) (Homo sapiens, UniProt P35968, DEL940-989/E990V).
T1 construct: VEGF-R2Δ50 contains residues 806–939 and 990–1171; made in house; host or cells: baculovirus/insect cell system
The assay is described as follows: VEGF-R2 coupled spectrophotometric assay, unphosphorylated VEGF-R2Δ50 (FLVK). Type of assay: biochemical. To be noted: unphosphorylated VEGF-R2Δ50; for inhibition at 0.05 µM: 50 nM compound, read-out: FLVK (% inh @ 50 nM). The method, boiled down:
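Ki obtained by Morrison-equation fitting of activity at varied compound levels; reaction started with 5–40 nM enzyme. Non-autophosphorylated kinase construct (insect cell-expressed) with 3 mM ATP, 20 mM poly(E4Y1), 60 mM MgCl2 plus 2 mM MnCl2, pH 7.5 HEPES; NADH loss at 340 nm via PK/LDH coupling.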

In assay [2] the test system is human umbilical vein endothelial cells (HUVEC). The assay is described as follows: HUVEC+VEGF proliferation assay. It is filed as cell-based. Particulars: Homo sapiens, HUVEC; VEGF 6 ng/mL, 72 h, MTT. The protocol: HUVEC+VEGF Proliferation Assay
This assay determines the ability of a test compound to inhibit the growth factor-stimulated proliferation of human umbilical vein endothelial cells (“HUVEC”). HUVEC cells (passage 3–4; Clonetics, Corp.) were thawed into EGM2 culture medium (Clonetics Corp) in T75 flasks. Fresh EGM2 medium was added to the flasks 24 hours later. Four or five days later, cells were exposed to another culture medium (F12K medium supplemented with 10% fetal bovine serum (FBS), 60 μg/mL endothelial cell growth supplement (ECGS), and 0.1 mg/mL heparin). Exponentially-growing HUVEC cells were used in experiments thereafter. Ten to twelve thousand HUVEC cells were plated in 96-well dishes in 100 μl of rich, culture medium (described above). The cells were allowed to attach for 24 hours in this medium. The medium was then removed by aspiration and 105 μl of starvation media (F12K+1% FBS) was added to each well. After 24 hours, 15 μl of test agent dissolved in 1% DMSO in starvation medium or this vehicle alone was added into each treatment well; the final DMSO concentration was 0.1%. One hour later, 30 μl of VEGF (30 ng/mL) in starvation media was added to all wells except those containing untreated controls; the final VEGF concentration was 6 ng/mL. Cellular proliferation was quantified 72 hours later by MTT dye reduction, at which time cells were exposed for 4 hours MTT (Promega Corp.). Dye reduction was stopped by addition of a stop solution (Promega Corp.) and absorbance at 595 nm was determined on a 96-well spectrophotometer plate reader.

The target in assay [3] is T2, PDGFRβ (Homo sapiens, UniProt P09619).
T2 construct: expressed in transfected cells; host or cells: porcine aorta endothelial (PAE)-PDGFRβ cells
Briefly: PAE-PDGFRβ phosphorylation in PAE-PDGFRB cells assay. Type of assay: cell-based. To be noted: PAE cells overexpressing human PDGFRβ, PDGF-BB stimulated; read-out: PAE PDGFR autophos IC50 (nM) AVG. The method, boiled down:
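Inhibition of PDGF-BB-induced (1 μg/mL, 8 min, with 2 mM vanadate) PDGFRβ autophosphorylation in porcine aortic endothelial cells expressing the human receptor. Cells were starved 16 h and pretreated with compound 1 h at 37 °C. Lysates were captured with anti-PDGFRβ and probed with HRP-PY20 at 450 nm; four-parameter IC50.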

Assay [4] has as its system Huvec. The assay is described as follows: bFGF Huvec proliferation. It is filed as cell-based, human. Particulars: Homo sapiens, HUVEC.

T1 sequence (P35968 with tags, fused parts or gaps DEL940-989/E990V limits assumed): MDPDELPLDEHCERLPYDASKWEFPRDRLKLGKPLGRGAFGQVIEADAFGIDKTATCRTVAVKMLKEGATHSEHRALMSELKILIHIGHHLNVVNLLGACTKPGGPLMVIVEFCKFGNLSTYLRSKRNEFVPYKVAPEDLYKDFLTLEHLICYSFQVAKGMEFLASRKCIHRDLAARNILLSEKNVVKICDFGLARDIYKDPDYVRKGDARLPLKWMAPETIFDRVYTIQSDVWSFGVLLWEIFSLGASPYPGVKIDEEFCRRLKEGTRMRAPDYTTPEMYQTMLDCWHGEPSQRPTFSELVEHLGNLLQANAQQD
T2 sequence (P09619 33-1106): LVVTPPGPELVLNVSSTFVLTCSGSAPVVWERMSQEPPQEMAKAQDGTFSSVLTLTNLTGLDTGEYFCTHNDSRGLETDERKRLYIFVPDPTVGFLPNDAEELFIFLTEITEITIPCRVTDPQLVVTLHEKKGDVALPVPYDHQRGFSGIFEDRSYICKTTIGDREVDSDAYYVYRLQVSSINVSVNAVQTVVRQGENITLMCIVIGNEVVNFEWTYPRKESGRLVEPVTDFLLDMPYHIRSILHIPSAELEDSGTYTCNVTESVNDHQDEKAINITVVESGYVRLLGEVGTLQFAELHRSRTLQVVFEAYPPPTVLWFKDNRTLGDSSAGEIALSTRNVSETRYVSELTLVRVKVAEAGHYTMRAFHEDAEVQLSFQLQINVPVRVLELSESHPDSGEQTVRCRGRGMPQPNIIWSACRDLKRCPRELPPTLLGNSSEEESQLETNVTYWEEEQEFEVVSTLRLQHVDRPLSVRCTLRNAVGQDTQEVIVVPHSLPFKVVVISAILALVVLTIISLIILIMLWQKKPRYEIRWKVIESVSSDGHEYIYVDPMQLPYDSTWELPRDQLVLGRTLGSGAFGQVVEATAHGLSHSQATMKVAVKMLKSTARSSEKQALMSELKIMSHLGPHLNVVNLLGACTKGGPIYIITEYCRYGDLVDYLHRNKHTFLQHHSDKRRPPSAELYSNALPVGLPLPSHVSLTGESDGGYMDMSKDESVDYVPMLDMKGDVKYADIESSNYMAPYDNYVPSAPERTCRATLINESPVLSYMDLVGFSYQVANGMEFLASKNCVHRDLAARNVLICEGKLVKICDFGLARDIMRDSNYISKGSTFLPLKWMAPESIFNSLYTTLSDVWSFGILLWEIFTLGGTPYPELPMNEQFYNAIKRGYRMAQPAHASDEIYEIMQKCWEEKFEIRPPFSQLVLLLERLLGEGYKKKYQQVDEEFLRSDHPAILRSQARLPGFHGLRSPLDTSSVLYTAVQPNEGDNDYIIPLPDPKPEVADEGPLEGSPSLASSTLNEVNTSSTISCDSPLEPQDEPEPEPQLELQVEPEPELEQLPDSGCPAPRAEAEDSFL

The Ki is a measure of affinity in units of concentration, obtained from inhibition or displacement. High values mean lower affinity, low ones higher affinity. The IC50 is the concentration that gives 50% inhibition. Consider `Cc1sc2cc(Oc3ccnc4cc(-c5nccn5C)sc34)ccc2c1C(=O)NCC1CC1` [Example 119, 2-Methyl-6-{[2-(1-methyl-1-imidazol-2-yl)thieno[3,2-b]pyridin-7-yl]oxy}benzo[b]thiophene-3-carboxylic acid (cyclopropylmethyl)amide], for which the inhibition at 0.05 µM in assay [1] is 95%. This compound came in with a Ki in assay [1] of 0.375 nM. Further, the IC50 came out at 1.46 nM in assay [2], 90.6 nM in assay [3] and 1830 nM in assay [4].

On to `CNC(=O)c1c(C)oc2cc(Oc3ccnc4cc(-c5nc(CO)cs5)sc34)ccc12` [Example 81, 6-[2-(4-Hydroxymethyl-thiazol-2-yl)-thieno[3,2-b]pyridin-7-yloxy]-2-methyl-benzofuran-3-carboxylic acid methylamide], for which, in assay [1], the inhibition at 0.05 µM worked out at 100%. This compound also had a Ki in assay [1] of 0.2 nM. The results for the IC50 in assay [2], in assay [3] and in assay [4] were 0.09 nM, 7 nM and 26 nM, respectively.

As for `CO[C@@H]1CCN(C(=O)c2cc3nccc(Oc4ccc5c(C(=O)NC6CC6)c(C)sc5c4)c3s2)C1` [Example 11, 6-[(2-{[(3R)-3-methoxypyrrolidin-1-yl]carbonyl}thieno[3,2-b]pyridin-7-yl)oxy]-2-methylbenzo[b]thiophene-3-carboxylic acid cyclopropylamide], in assay [1], the inhibition at 0.05 µM was 93%. The Ki in assay [1] is 0.492 nM. Moreover, the IC50 in assay [2] was determined as 0.56 nM; in assay [3], 104 nM; in assay [4], 40 nM.

For the compound `CNC(=O)c1c(C)sc2cc(Oc3ccnc4cc(-c5nc(CO)cs5)sc34)ccc12` [Example 128], the inhibition at 0.05 µM in assay [1] was determined as 91%. In assay [1], the Ki is 0.57 nM. Further, the results for the IC50 in assay [2], in assay [3] and in assay [4] were 0.13 nM, 148 nM and 100 nM, respectively.

Consider `CNC(=O)c1c(C)n(C)c2cc(Oc3ccnc4cc(-c5nc(CO)cs5)sc34)ccc12` [Example 26, 1,2-Dimethyl-6-(2-[4-(hydroxymethyl)thiazol-2-yl]thieno[3,2-b]pyridin-7-yloxy)-1H-indole-3-carboxylic acid methylamide], for which the inhibition at 0.05 µM in assay [1] worked out at 83%. The compound also returned a Ki in assay [1] of 3.66 nM. Further, the IC50 in assay [2] worked out at 0.74 nM; in assay [3], 13 nM; in assay [4] it was 2230 nM.

For the compound `CCc1sc2cc(Oc3ccnc4cc(-c5nccn5C)sc34)ccc2c1C(=O)NC` [Example 134, 2-Ethyl 6-{[2-(1-methyl-1H-imidazol-2-yl)thieno[3,2-b]pyridin-7-yl]oxy}benzo[b]thiophene-3-carboxylic acid methylamide], the inhibition at 0.05 µM in assay [1] was 94%. The compound further registered a Ki in assay [1] of 1.44 nM. Also, the IC50 in assay [2] was 0.656 nM; in assay [3], 177 nM; in assay [4], 1070 nM.

`Cc1c(C(=O)NCC2CC2)c2ccc(Oc3ccnc4cc(C(=O)N5CC[C@@H](O)C5)sc34)cc2n1C` [Example 56]: in assay [1], the inhibition at 0.05 µM was 60%. In assay [1], the Ki was found to be 3.8 nM. In addition, the IC50 in assay [2] turned out to be 22 nM; in assay [3], 109 nM; in assay [4], 10000 nM.

For the compound `Cc1c(C(=O)NC2CC2)c2ccc(Oc3ccnc4cc(C(=O)N5CC[C@@H](O)C5)sc34)cc2n1C` [Example 53, 6-[2-((R)-3-Hydroxy-pyrrolidine-1-carbonyl)-thieno[3,2-b]pyridin-7-yloxy]-1,2-dimethyl-1H-indole-3-carboxylic acid cyclopropylamide], the inhibition at 0.05 µM in assay [1] came out at 93%. Also, in assay [1], the Ki worked out at 1.07 nM. Also, the IC50 worked out at 1.8 nM in assay [2], 229 nM in assay [3] and 7230 nM in assay [4].

Consider `Cc1c(C(=O)NCCCO)c2ccc(Oc3ccnc4cc(C(=O)N5CCC5)sc34)cc2n1C` [Example 63, 6-[2-(Azetidine-1-carbonyl)-thieno[3,2-b]pyridin-7-yloxy}-1,2-dimethyl-1H-indole-3-carboxylic acid (3-hydroxy-propyl)-amide], for which, in assay [1], the inhibition at 0.05 µM came to 67%. This compound had a Ki in assay [1] of 9.33 nM. Also, the IC50 in assay [2] turned out to be 10 nM; in assay [3], 84 nM; in assay [4], 10000 nM.

Regarding `Cc1sc2cc(Oc3ccnc4cc(C(=O)N5CC[C@@H](O)C5)sc34)ccc2c1C(=O)NCC1CC1` [Example 126, 6[(2-{[(3R)-3-Hydroxypyrrolidin-1-yl]carbonyl}thieno[3,2-b]pyridin-7-yl)oxy]-2-methylbenzo[b]thiophene-3-carboxylic acid (cyclopropylmethyl)amide], in assay [1], the inhibition at 0.05 µM worked out at 96%. In assay [1], this compound returned a Ki of 0.59 nM. In addition, the IC50 in assay [2] amounted to 10 nM; in assay [3], 336 nM; in assay [4], 5660 nM.

Turning to `Cc1sc2cc(Oc3ccnc4cc(C(=O)N5CCC5)sc34)ccc2c1C(=O)NCC1CC1` [Example 131, 6-{[2-(Azetidin-1-ylcarbonyl)thieno[3,2-b]pyridin-7-yl]oxy}-2-methylbenzo[b]thiophene-3-carboxylic acid (cyclopropylmethyl)amide], in assay [1], the inhibition at 0.05 µM stood at 96%. Affinity in assay [1] was put at a Ki of 0.2 nM. In addition, the values for the IC50 in assay [2], in assay [3] and in assay [4] were 1.89 nM, 97 nM and 260 nM, respectively.

For `CCCNC(=O)c1c(C)n(C)c2cc(Oc3ccnc4cc(C(=O)N5CC[C@@H](O)C5)sc34)ccc12` [Example 59, 6-[2-(3-Hydroxy-pyrrolidine-1-carbonyl)-thieno[3,2-b]pyridin-7-yloxy]-1,2-dimethyl-3H-indole-3-carboxylic acid propylamide], the inhibition at 0.05 µM in assay [1] was found to be 81%. Besides, the Ki in assay [1] was 1.38 nM. Moreover, the IC50 is 0.045 nM in assay [2], 115 nM in assay [3] and 1160 nM in assay [4].

For `CNC(=O)c1c(C)n(C)c2cc(Oc3ccnc4cc(-c5nccs5)sc34)ccc12` [Example 41, 1,2-Dimethyl-6-(2-thiazol-2-yl-thieno[3,2-b]pyridin-7-yloxy)-1H-indole-3-carboxylic acid methylamide], the inhibition at 0.05 µM in assay [1] was 71%. Besides, in assay [1], the Ki was 3.3 nM. Further, the IC50 in assay [2] came to 3.7 nM; in assay [3], 22.1 nM; in assay [4], 1220 nM.

In the case of `CNC(=O)c1c(C)n(C)c2cc(Oc3ccnc4cc(-c5nc(C(C)(C)O)cs5)sc34)ccc12` [Example 40, 6-{2-[4(1-Hydroxy-1-methyl-ethyl)-thiazol-2-yl]-thieno[3,2-b]pyridin-7-yloxy}-1,2-dimethyl-1H-indole-3-carboxylic acid methylamide], the inhibition at 0.05 µM in assay [1] turned out to be 77%. This compound gave a Ki in assay [1] of 2.95 nM. Besides, the IC50 was 1.12 nM in assay [2], 24.2 nM in assay [3] and 7800 nM in assay [4].

Turning to `Cc1c(C(=O)NC2CC2)c2ccc(Oc3ccnc4cc(C(=O)N5CCC[C@H]5CO)sc34)cc2n1C` [Example 54, N-Cyclopropyl-6-[(2-{[(2S)-2-(hydroxymethyl)pyrrolidin-1-yl]carbonyl}thieno[3,2-b]pyridin-7-yl)oxy]-1,2-dimethyl-1H-indole-3-carboxamide], the inhibition at 0.05 µM in assay [1] turned out to be 89%. In assay [1], this compound yielded a Ki of 1.71 nM. For the same compound, the IC50 in assay [2] was 1.8 nM; in assay [3] it was 133 nM; in assay [4], 10000 nM.
